Reference: article PMC8800111 (The Journal of Biological Chemistry, 2021)

Legend:
Assay type in all cases: cell-based
[1] = molecular target: proteins of U3A human fibrosarcoma cells (4462 proteins detected) (Homo sapiens, UniProt P08670); conditions: protein VIM; U3A cells
[2] = molecular target: proteins of U3A human fibrosarcoma cells (4462 proteins detected) (Homo sapiens, UniProt Q9UIG0); conditions: protein BAZ1B; U3A cells
[3] = molecular target: proteins of U3A human fibrosarcoma cells (4462 proteins detected) (Homo sapiens, UniProt P49441); conditions: protein INPP1, U3A cells
Sequence of proteins of U3A human fibrosarcoma cells (4462 proteins detected) (Homo sapiens, UniProt P49441) (P49441 whole entry): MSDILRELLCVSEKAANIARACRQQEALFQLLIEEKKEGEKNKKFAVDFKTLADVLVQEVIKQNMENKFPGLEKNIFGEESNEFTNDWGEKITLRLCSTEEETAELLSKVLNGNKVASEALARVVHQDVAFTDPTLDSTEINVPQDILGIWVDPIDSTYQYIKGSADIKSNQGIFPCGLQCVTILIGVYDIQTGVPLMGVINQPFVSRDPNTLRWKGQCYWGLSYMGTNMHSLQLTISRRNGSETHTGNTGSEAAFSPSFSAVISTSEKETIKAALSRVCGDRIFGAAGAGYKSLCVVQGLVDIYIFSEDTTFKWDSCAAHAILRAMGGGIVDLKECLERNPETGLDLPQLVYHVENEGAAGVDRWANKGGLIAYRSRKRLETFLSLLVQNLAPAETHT

[4] = molecular target: proteins of U3A human fibrosarcoma cells (4462 proteins detected) (Homo sapiens, UniProt Q9H3U1); conditions: protein UNC45A; U3A cells
[5] = molecular target: proteins of U3A human fibrosarcoma cells (4462 proteins detected) (Homo sapiens, UniProt Q9NRN7); conditions: protein AASDHPPT; U3A cells
[6] = molecular target: proteins of U3A human fibrosarcoma cells (4462 proteins detected) (Homo sapiens, UniProt Q9NVU7); conditions: protein SDAD1; soluble abundance after heat, U3A cells
[7] = molecular target: proteins of U3A human fibrosarcoma cells (4462 proteins detected) (Homo sapiens, UniProt Q15599); conditions: protein SLC9A3R2, U3A cells
Sequence of proteins of U3A human fibrosarcoma cells (4462 proteins detected) (Homo sapiens, UniProt Q15599) (Q15599 whole entry): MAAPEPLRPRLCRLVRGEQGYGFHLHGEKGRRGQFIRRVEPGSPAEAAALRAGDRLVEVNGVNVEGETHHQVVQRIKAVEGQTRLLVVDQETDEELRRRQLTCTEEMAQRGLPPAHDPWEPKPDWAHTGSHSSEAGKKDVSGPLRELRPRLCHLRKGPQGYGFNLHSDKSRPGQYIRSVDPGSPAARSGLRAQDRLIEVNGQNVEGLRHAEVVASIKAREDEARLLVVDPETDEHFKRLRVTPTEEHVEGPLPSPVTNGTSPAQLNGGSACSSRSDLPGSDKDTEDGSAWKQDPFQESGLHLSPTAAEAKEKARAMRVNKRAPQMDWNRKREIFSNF

[8] = molecular target: proteins of U3A human fibrosarcoma cells (4462 proteins detected) (Homo sapiens, UniProt Q86UA6); conditions: protein RPAIN, U3A cells
Sequence of proteins of U3A human fibrosarcoma cells (4462 proteins detected) (Homo sapiens, UniProt Q86UA6) (Q86UA6 whole entry): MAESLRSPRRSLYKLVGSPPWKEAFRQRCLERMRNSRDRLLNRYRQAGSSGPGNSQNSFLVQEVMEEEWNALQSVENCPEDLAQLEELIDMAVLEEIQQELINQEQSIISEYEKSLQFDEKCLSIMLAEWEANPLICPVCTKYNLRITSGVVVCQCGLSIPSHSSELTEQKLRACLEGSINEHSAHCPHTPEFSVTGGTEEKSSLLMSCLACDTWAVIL

[9] = molecular target: proteins of U3A human fibrosarcoma cells (4462 proteins detected) (Homo sapiens, UniProt P63173); conditions: protein RPL38; U3A cells
[10] = molecular target: proteins of U3A human fibrosarcoma cells (4462 proteins detected) (Homo sapiens, UniProt O60749); conditions: protein SNX2; U3A cells
[11] = molecular target: proteins of U3A human fibrosarcoma cells (4462 proteins detected) (Homo sapiens, UniProt Q9HCJ0); conditions: protein TNRC6C, U3A cells
[12] = molecular target: proteins of U3A human fibrosarcoma cells (4462 proteins detected) (Homo sapiens, UniProt P61201); conditions: protein COPS2; U3A cells
[13] = molecular target: proteins of U3A human fibrosarcoma cells (4462 proteins detected) (Homo sapiens, UniProt Q9NS69); conditions: protein TOMM22; soluble abundance after heat, U3A cells
[14] = molecular target: proteins of U3A human fibrosarcoma cells (4462 proteins detected) (Homo sapiens, UniProt Q6QNY1); conditions: protein BLOC1S2, U3A cells
[15] = molecular target: proteins of U3A human fibrosarcoma cells (4462 proteins detected) (Homo sapiens, UniProt Q96SB8); conditions: protein SMC6; U3A cells
Sequence of proteins of U3A human fibrosarcoma cells (4462 proteins detected) (Homo sapiens, UniProt Q96SB8) (Q96SB8 whole entry): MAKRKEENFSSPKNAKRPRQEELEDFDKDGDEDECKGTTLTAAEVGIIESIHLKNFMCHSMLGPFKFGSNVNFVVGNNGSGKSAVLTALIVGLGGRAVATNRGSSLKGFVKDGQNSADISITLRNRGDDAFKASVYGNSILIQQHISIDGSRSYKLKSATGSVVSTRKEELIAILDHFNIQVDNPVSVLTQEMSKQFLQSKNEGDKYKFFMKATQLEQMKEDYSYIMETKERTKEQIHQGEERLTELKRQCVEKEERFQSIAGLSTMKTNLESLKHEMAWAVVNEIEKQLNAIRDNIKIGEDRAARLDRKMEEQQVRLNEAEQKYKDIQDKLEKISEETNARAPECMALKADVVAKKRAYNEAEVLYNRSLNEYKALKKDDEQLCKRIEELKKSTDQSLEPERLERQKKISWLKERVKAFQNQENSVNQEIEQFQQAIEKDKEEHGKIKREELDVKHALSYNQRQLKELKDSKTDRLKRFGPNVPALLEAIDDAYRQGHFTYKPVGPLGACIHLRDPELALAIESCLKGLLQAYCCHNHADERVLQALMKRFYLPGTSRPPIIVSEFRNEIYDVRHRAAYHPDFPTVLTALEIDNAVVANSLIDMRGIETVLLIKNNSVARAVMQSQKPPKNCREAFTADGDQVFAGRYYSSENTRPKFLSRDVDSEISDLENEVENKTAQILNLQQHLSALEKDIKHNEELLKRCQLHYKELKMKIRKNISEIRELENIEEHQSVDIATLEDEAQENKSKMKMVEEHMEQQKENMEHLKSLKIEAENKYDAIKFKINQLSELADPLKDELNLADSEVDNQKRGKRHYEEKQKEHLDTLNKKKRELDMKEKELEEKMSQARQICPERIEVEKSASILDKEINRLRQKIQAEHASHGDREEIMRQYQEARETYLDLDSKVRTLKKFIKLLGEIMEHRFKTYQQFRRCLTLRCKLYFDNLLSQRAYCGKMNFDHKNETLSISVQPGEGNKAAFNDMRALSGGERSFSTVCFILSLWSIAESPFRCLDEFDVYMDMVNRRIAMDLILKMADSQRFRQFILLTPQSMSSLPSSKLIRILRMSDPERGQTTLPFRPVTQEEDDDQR

[16] = molecular target: proteins of U3A human fibrosarcoma cells (4462 proteins detected) (Homo sapiens, UniProt O00330); conditions: protein PDHX; U3A cells
Sequence of proteins of U3A human fibrosarcoma cells (4462 proteins detected) (Homo sapiens, UniProt O00330) (O00330 54-501): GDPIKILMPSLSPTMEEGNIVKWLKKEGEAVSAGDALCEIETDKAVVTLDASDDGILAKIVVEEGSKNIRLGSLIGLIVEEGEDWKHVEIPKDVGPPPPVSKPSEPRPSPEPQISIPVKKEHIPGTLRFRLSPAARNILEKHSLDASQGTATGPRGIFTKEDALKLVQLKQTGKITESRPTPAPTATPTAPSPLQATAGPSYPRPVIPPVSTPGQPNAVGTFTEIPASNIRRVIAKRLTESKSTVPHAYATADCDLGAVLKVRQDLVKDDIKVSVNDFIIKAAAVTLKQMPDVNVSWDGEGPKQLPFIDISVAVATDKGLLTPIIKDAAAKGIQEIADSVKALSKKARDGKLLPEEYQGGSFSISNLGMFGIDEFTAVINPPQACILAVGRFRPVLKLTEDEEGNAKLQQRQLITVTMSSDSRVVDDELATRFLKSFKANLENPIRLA

[17] = molecular target: proteins of U3A human fibrosarcoma cells (4462 proteins detected) (Homo sapiens, UniProt P25325); conditions: protein MPST, U3A cells
[18] = molecular target: proteins of U3A human fibrosarcoma cells (4462 proteins detected) (Homo sapiens, UniProt Q8NHQ9); conditions: protein DDX55; U3A cells
Sequence of proteins of U3A human fibrosarcoma cells (4462 proteins detected) (Homo sapiens, UniProt Q8NHQ9) (Q8NHQ9 whole entry): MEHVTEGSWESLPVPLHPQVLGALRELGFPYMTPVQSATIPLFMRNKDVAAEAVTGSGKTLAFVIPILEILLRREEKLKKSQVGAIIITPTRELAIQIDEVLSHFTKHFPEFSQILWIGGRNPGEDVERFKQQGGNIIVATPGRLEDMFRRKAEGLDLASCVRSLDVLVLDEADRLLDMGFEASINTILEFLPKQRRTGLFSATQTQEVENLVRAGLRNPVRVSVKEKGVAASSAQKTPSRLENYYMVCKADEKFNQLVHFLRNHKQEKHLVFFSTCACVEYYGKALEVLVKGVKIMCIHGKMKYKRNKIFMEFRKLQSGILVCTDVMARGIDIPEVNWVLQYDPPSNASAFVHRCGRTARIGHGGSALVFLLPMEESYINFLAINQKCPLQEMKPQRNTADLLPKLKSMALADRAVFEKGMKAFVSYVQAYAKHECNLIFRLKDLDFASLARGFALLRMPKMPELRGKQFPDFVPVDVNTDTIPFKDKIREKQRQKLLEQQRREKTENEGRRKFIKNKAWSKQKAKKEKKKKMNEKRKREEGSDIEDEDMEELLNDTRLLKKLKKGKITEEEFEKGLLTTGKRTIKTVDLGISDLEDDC

[19] = molecular target: proteins of U3A human fibrosarcoma cells (4462 proteins detected) (Homo sapiens, UniProt Q6P1N0); conditions: protein CC2D1A; soluble abundance after heat, U3A cells
[20] = molecular target: proteins of U3A human fibrosarcoma cells (4462 proteins detected) (Homo sapiens, UniProt Q86TS9); conditions: protein MRPL52; soluble abundance after heat, U3A cells
[21] = molecular target: proteins of U3A human fibrosarcoma cells (4462 proteins detected) (Homo sapiens, UniProt Q9BUJ2); conditions: protein HNRNPUL1, U3A cells
[22] = molecular target: proteins of U3A human fibrosarcoma cells (4462 proteins detected) (Homo sapiens, UniProt P62805); conditions: protein HIST1H4A; U3A, 10 μM, 2 h
[23] = molecular target: proteins of U3A human fibrosarcoma cells (4462 proteins detected) (Homo sapiens, UniProt P13796); conditions: protein LCP1; soluble abundance after heat, U3A cells
[24] = molecular target: proteins of U3A human fibrosarcoma cells (4462 proteins detected) (Homo sapiens, UniProt Q8N4Q1); conditions: protein CHCHD4; soluble abundance after heat, U3A cells
Sequence of proteins of U3A human fibrosarcoma cells (4462 proteins detected) (Homo sapiens, UniProt Q8N4Q1) (Q8N4Q1 whole entry): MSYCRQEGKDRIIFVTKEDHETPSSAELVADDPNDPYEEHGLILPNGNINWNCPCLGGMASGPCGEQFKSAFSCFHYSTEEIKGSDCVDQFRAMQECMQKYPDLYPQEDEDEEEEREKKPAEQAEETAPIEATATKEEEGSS

[25] = molecular target: proteins of U3A human fibrosarcoma cells (4462 proteins detected) (Homo sapiens, UniProt O95059); conditions: protein RPP14; soluble abundance after heat, U3A cells
[26] = molecular target: proteins of U3A human fibrosarcoma cells (4462 proteins detected) (Homo sapiens, UniProt Q16740); conditions: protein CLPP; soluble abundance after heat, U3A cells
Sequence of proteins of U3A human fibrosarcoma cells (4462 proteins detected) (Homo sapiens, UniProt Q16740) (Q16740 57-277): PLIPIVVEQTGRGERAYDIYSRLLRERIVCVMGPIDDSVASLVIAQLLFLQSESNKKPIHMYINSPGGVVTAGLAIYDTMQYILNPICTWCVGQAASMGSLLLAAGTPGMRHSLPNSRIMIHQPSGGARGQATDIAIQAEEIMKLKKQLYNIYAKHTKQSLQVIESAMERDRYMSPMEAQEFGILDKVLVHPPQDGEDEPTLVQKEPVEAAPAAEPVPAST

[27] = molecular target: proteins of U3A human fibrosarcoma cells (4462 proteins detected) (Homo sapiens, UniProt P15153); conditions: protein RAC2; U3A, 10 μM, 2 h
[28] = molecular target: proteins of U3A human fibrosarcoma cells (4462 proteins detected) (Homo sapiens, UniProt O15164); conditions: protein TRIM24; U3A cells
Sequence of proteins of U3A human fibrosarcoma cells (4462 proteins detected) (Homo sapiens, UniProt O15164) (O15164 whole entry): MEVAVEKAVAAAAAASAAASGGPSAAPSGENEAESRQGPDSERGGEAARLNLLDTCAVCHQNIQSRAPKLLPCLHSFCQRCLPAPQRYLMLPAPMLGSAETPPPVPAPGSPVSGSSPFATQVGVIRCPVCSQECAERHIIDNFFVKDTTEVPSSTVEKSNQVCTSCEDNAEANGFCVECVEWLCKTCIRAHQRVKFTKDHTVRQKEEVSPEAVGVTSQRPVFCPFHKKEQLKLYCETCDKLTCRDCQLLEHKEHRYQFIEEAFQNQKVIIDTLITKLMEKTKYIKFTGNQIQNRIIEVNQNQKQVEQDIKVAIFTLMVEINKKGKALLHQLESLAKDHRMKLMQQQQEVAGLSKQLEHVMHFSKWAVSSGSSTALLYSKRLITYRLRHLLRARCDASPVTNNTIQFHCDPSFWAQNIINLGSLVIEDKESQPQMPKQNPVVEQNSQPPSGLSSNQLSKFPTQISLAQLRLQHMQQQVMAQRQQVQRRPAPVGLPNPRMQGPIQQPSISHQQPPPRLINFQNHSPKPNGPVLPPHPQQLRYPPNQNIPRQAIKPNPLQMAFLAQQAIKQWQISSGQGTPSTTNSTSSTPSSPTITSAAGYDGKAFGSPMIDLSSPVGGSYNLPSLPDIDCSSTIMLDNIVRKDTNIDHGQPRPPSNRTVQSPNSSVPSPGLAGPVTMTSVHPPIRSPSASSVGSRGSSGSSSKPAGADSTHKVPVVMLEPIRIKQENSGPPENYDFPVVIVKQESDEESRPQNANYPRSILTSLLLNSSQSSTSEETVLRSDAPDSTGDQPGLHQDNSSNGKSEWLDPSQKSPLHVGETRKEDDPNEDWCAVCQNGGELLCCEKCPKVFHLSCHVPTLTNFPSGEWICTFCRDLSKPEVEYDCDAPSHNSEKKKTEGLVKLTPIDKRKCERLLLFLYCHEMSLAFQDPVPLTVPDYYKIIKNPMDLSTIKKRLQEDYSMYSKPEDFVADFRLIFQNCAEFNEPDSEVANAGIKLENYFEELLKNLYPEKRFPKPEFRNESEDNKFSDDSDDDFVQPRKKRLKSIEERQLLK

[29] = molecular target: proteins of U3A human fibrosarcoma cells (4462 proteins detected) (Homo sapiens, UniProt Q99661); conditions: protein KIF2C; U3A cells
[30] = molecular target: proteins of U3A human fibrosarcoma cells (4462 proteins detected) (Homo sapiens, UniProt Q9H6E4); conditions: protein CCDC134; U3A, 10 μM, 2 h

Sequence of proteins of U3A human fibrosarcoma cells (4462 proteins detected) (Homo sapiens, UniProt P08670) (P08670 whole entry): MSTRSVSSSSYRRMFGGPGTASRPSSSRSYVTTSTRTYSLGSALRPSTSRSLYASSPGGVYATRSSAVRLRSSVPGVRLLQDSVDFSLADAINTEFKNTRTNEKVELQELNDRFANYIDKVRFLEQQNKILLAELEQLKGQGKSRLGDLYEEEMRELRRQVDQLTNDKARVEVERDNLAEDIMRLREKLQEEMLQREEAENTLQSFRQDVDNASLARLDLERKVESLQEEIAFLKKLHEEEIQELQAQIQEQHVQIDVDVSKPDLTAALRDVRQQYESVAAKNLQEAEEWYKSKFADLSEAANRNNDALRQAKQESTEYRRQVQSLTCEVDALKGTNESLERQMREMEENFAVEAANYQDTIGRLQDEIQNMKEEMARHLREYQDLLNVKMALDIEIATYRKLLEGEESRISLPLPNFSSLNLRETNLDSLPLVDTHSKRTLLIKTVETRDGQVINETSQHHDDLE

SMILES: CCc1nc(N)nc(N)c1-c1ccc(Cl)cc1 [pyrimethamine]
- Log2 (PYR/DMSO) [1]: 0.17
- Log2 (PYR/DMSO) [2]: 0.21
- Log2 (PYR/DMSO) [3]: -0.04
- Log2 (PYR/DMSO) [4]: 0.21
- Log2 (PYR/DMSO) [5]: 0.17
- Log2 (PYR/DMSO) [6]: 0.15
- Log2 (PYR/DMSO) [7]: -0.05
- Log2 (PYR/DMSO) [8]: -0.04
- Log2 (PYR/DMSO) [9]: 0.18
- Log2 (PYR/DMSO) [10]: 0.17
- Log2 (PYR/DMSO) [11]: -0.04
- Log2 (PYR/DMSO) [12]: 0.21
- Log2 (PYR/DMSO) [13]: 0.14
- Log2 (PYR/DMSO) [14]: -0.04
- Log2 (PYR/DMSO) [15]: 0.18
- Log2 (PYR/DMSO) [16]: 0.19
- Log2 (PYR/DMSO) [17]: -0.05
- Log2 (PYR/DMSO) [18]: 0.23
- Log2 (PYR/DMSO) [19]: 0.15
- Log2 (PYR/DMSO) [20]: 0.15
- Log2 (PYR/DMSO) [21]: -0.04
- Log2 (PYR/DMSO), HIST1H4A [22]: 0.28
- Log2 (PYR/DMSO) [23]: 0.15
- Log2 (PYR/DMSO) [24]: 0.14
- Log2 (PYR/DMSO) [25]: 0.14
- Log2 (PYR/DMSO) [26]: 0.14
- Log2 (PYR/DMSO), RAC2 [27]: -0.15
- Log2 (PYR/DMSO) [28]: 0.16
- Log2 (PYR/DMSO) [29]: 0.17
- Log2 (PYR/DMSO), CCDC134 [30]: 0.23
